Like-named read-outs stand apart in the source and are kept apart here.
System: AChE
Type: in vivo, rat
Details: colchicine model
Description: Thiocholine, which was produced due to the hydrolysis of acetylthiocholine (ACTI) by AChE, was estimated by making it react with 5, 5′-dithiobis-(2-nitrobenzoic acid) (DTNB). The chemical, 5-thio-2-nitrobenzoic acid (yellow color complex), which was released due to reaction was estimated using a UV spectrophotometer in the range of 400 to 420 nm with maximal absorption at 412 nm. One hundred microliter of blank rat plasma was taken in the polypropylene vials. To this, 2.8 mL of phosphate buffer (0.01 M, pH 8) and 100 µL of DTNB reagents were added and mixed well. Then, 20 µL of ACTI (26.01 mg/mL of Milli-Q water) was added to the contents of the cuvette to initiate the enzyme reaction. The reaction kinetics was monitored at different time intervals (0, 1, 2, 3, 4 min), and absorbance was noted. 2.8 mL buffer (0.01 M, pH 8.0) and 100 µL DTNB reagent served as blank. Concentrations in the range of 0.03–30 mM were prepared using methanol as a diluent. […] Substrate concentration and reaction time were optimized such that sufficient concentration of ACTI is available to bind with the enzyme to initiate the reaction and also it should not saturate the enzyme. In this study, varying concentrations (100–1000 µM) of ACTI were prepared, and reaction kinetics were observed. In general, the maximum time should be either 2–4 min or even less, because the enzyme might undergo degradation. In the present study, up to 4 min of reaction kinetics (changing the optical density or absorbance) was measured. One unit of AChE activity is defined as the number of µmol of acetylthiocholine iodide hydrolyzed per minute. The specific activity of AChE is expressed in moles/min/mg of protein (Kaur et al. [2015]): AChEActivity=(abs.permin×1000×volumeofenzyme)/(13600×TRM)AChEActivity=abovevalue×1000(nanomolar/min/mL)
where 13,600 = molar extinction coefficient of DTNB: 1000-molar conversion factor: (TRM) total reaction mixture 3 mL: volume of enzyme (0.1 mL).

Q: Which “peak AChE inhibition in rat plasma” value does the source give for `CCN(C)C(=O)Oc1cccc([C@H](C)N(C)C)c1` [INRSM, rivastigmine] here?
A: 76.75%

Q: What about the “time of peak AChE inhibition in rat plasma” value of the same compound?
A: 15 min

Q: And the “% AChE Inhibition in rat plasma” value (0 min, listed as COL + INRSM)?
A: 0.00 ± 0.0608%

Q: And the “% AChE Inhibition in rat plasma” value (5 min, listed as COL + INRSM)?
A: 75.74 ± 0.0358%

Q: And the “% AChE Inhibition in rat plasma” value (10 min, listed as COL + INRSM)?
A: 70.41 ± 0.0540%

Q: And the “% AChE Inhibition in rat plasma” value (20 min, listed as COL + INRSM)?
A: 73.66 ± 0.0482%

Q: What about the “% AChE Inhibition in rat plasma” value (30 min, listed as COL + INRSM) of the same compound?
A: 67.33 ± 0.0474%

Q: What about the “% AChE Inhibition in rat plasma” value (45 min) of the same compound?
A: 64.43 ± 0.0388%

Q: What about the “% AChE Inhibition in rat plasma” value (90 min, listed as COL + INRSM) of the same compound?
A: 55.83 ± 0.0401%

Q: What about the “% AChE Inhibition in rat plasma” value (120 min, listed as COL + INRSM) of the same compound?
A: 47.15 ± 0.0392%

Q: And the “% AChE Inhibition in rat plasma” value (180 min, listed as COL + INRSM)?
A: 41.37 ± 0.0410%

Q: Which “peak AChE inhibition in rat plasma” value does the source give for `CCN(C)C(=O)Oc1cccc([C@H](C)N(C)C)c1` [ORSM, rivastigmine] here?
A: 69.56%

Q: What about the “time of peak AChE inhibition in rat plasma” value of the same compound?
A: 45 min

Q: What about the “% AChE Inhibition in rat plasma” value (0 min, listed as COL + ORSM) of the same compound?
A: 0.00 ± 0.0811%

Q: What about the “% AChE Inhibition in rat plasma” value (5 min, listed as COL + ORSM) of the same compound?
A: 61.96 ± 0.0469%

Q: And the “% AChE Inhibition in rat plasma” value (10 min, listed as COL + ORSM)?
A: 66.76 ± 0.0195%

Q: What about the “% AChE Inhibition in rat plasma” value (15 min) of the same compound?
A: 65.00 ± 0.0292%

Q: And the “% AChE Inhibition in rat plasma” value (20 min, listed as COL + ORSM)?
A: 66.57 ± 0.0344%

Q: What about the “% AChE Inhibition in rat plasma” value (30 min, listed as COL + ORSM) of the same compound?
A: 66.82 ± 0.0101%

Q: And the “% AChE Inhibition in rat plasma” value (60 min, listed as COL + ORSM)?
A: 67.53 ± 0.0096%

Q: And the “% AChE Inhibition in rat plasma” value (90 min, listed as COL + ORSM)?
A: 61.88 ± 0.0149%

Q: And the “% AChE Inhibition in rat plasma” value (120 min, listed as COL + ORSM)?
A: 60.64 ± 0.0186%

Q: And the “% AChE Inhibition in rat plasma” value (180 min, listed as COL + ORSM)?
A: 47.43 ± 0.0393%

— PMC8298375 (Naunyn-Schmiedeberg's Archives of Pharmacology, 2021)
